Square brackets hold non-standard residues; d marks the D form. Peptide text beside a SMILES is read from it. pY = N[C@@H](Cc1ccc(OP(=O)(O)O)cc1)C(=O)O; Ahp = NCCCCCCC(=O)O
Test: Binding affinity against c-Src tyrosine kinase SH2 domain expressed as ratio of IC50 of test compound over IC50 of AcYEEIE
With `CC(=O)N[C@@H](Cc1ccc(OP(=O)(O)O)cc1)C(=O)N[C@@H](CCC(=O)O)C(=O)N(C)CCCc1c[nH]c2ccccc12` the Ratio was 11.6. Work on `CCCCCN(CCCCC)C(=O)[C@H](CCC(=O)O)NC(=O)[C@H](Cc1ccc(OP(=O)(O)O)cc1)NC(=O)Cc1ccc(CN)cc1` yielded a Ratio of 92.1. For `CCCCCN(CCCCC)C(=O)[C@H](CCC(=O)O)NC(=O)[C@H](Cc1ccc(OP(=O)(O)O)cc1)NC(=O)CCc1cccnc1`, the Ratio was 17.7. `CCCCCN(CCCCC)C(=O)[C@H](CCC(=O)O)NC(=O)[C@H](Cc1ccc(OP(=O)(O)O)cc1)NC(=O)CSCc1ccccc1` gave a Ratio of 18.9. For `CC(=O)N[C@@H](Cc1ccc(OP(=O)(O)O)cc1)C(=O)N[C@@H](CCC(=O)O)C(=O)NCCCCCCC(N)=O` (Ac-[pY]-Glu-[Ahp]-NH2), the Ratio was 115. In the case of `CCCCCNC(=O)[C@H](CCC(=O)O)NC(=O)[C@H](Cc1ccc(OP(=O)(O)O)cc1)NC(C)=O`, the Ratio is reported as 16.6. For `CCCCCN(CCC(=O)OCC)C(=O)[C@H](CCC(=O)O)NC(=O)[C@H](Cc1ccc(OP(=O)(O)O)cc1)NC(C)=O`, the Ratio was 26. For `CC(=O)N[C@@H](Cc1ccc(OP(=O)(O)O)cc1)C(=O)N[C@@H](CCC(=O)O)C(=O)NCCc1c[nH]c2ccc(O)cc12`, the Ratio was 31.5. `CCCCCN(CCCCC)C(=O)[C@H](CCC(=O)O)NC(=O)[C@H](Cc1ccc(OP(=O)(O)O)cc1)NC(=O)c1ccccc1` gave a Ratio of 15.3. In the case of `CCCCCN(CCCCC)C(=O)[C@H](CCSC)NC(=O)[C@H](Cc1ccc(OP(=O)(O)O)cc1)NC(C)=O`, the Ratio is reported as 16.5. In the case of `CC(=O)N[C@@H](Cc1ccc(OP(=O)(O)O)cc1)C(=O)N[C@@H](CCC(=O)O)C(=O)N(C)CCc1c[nH]c2ccccc12`, the Ratio is reported as 31.8. For `CC(=O)N[C@@H](Cc1ccc(OP(=O)(O)O)cc1)C(=O)N[C@@H](CCC(=O)O)C(=O)N(C)CCCc1c(C(N)=O)[nH]c2ccccc12`, the Ratio was 9.3. Molecule `CC(=O)N[C@@H](Cc1ccc(OP(=O)(O)O)cc1)C(=O)N[C@@H](CCC(=O)O)C(=O)N(C)CCCCCCCO` has a Ratio of 3.6. With `CC(=O)N[C@@H](Cc1ccc(OP(=O)(O)O)cc1)C(=O)N[C@@H](CCC(=O)O)C(=O)O` (Ac-[pY]-Glu-OH) the Ratio was 606. For `COc1ccc2[nH]cc(CCNC(=O)[C@H](CCC(=O)O)NC(=O)[C@H](Cc3ccc(OP(=O)(O)O)cc3)NC(C)=O)c2c1`, the Ratio was 29.7. Molecule `CCCCCN(C)C(=O)[C@H](CCC(=O)O)NC(=O)[C@H](Cc1ccc(OP(=O)(O)O)cc1)NC(C)=O` has a Ratio of 12. Work on `CCCCCN(CCCCC)C(=O)[C@H](CCC(=O)O)NC(=O)[C@H](Cc1ccc(OP(=O)(O)O)cc1)NC(=O)c1ccc(C(F)(F)F)cc1` yielded a Ratio of 25.4. In the case of `CCCCCN(CCCCC)C(=O)[C@H](CCC(=O)O)NC(=O)[C@H](Cc1ccc(OP(=O)(O)O)cc1)NC(=O)CCc1ccc(O)cc1`, the Ratio is reported as 26.7. In the case of `CCCCCN(CCCCC)C(=O)[C@H](CCC(=O)O)NC(=O)[C@H](Cc1ccc(OP(=O)(O)O)cc1)NC(=O)C(F)(F)F`, the Ratio is reported as 57.2. `CC(=O)N[C@@H](Cc1ccc(OP(=O)(O)O)cc1)C(=O)N[C@@H](CCC(=O)O)C(=O)NCCCCCCC(=O)O` (Ac-[pY]-Glu-[Ahp]-OH) showed a Ratio of 36.7. With `CCCCCN(CCCCC)C(=O)[C@H](CCC(=O)O)NC(=O)[C@H](Cc1ccc(OP(=O)(O)O)cc1)NC(=O)CCCc1ccccc1` the Ratio was 27.2. `CCCCCN(CCO)C(=O)[C@H](CCC(=O)O)NC(=O)[C@H](Cc1ccc(OP(=O)(O)O)cc1)NC(C)=O` showed a Ratio of 16.7. Molecule `CCCCCN(CCCCC)C(=O)[C@H](CCC(=O)O)NC(=O)[C@H](Cc1ccc(OP(=O)(O)O)cc1)NC(=O)c1ccc([N+](=O)[O-])cc1` has a Ratio of 5.7. `CCCCCN(CCCCC)C(=O)[C@H](CCC(=O)O)NC(=O)[C@H](Cc1ccc(OP(=O)(O)O)cc1)NC(=O)Cc1ccccc1` gave a Ratio of 16.5. `CCCCCN(CCCCC)C(=O)[C@H](CCC(=O)O)NC(=O)[C@H](Cc1ccc(OP(=O)(O)O)cc1)NC(=O)CSc1ccccc1` showed a Ratio of 17.7. `CC(=O)N[C@@H](Cc1ccc(OP(=O)(O)O)cc1)C(=O)N[C@@H](CCC(=O)O)C(N)=O` (Ac-[pY]-Glu-NH2) gave a Ratio of 200. With `CCCCCN(CCCCC)C(=O)[C@H](CCC(=O)O)NC(=O)[C@H](Cc1ccc(OP(=O)(O)O)cc1)NC(=O)COCc1ccccc1` the Ratio was 32.7. Molecule `CCCCCN(CCCCC)C(=O)[C@H](CCC(=O)O)NC(=O)[C@H](Cc1ccc(OP(=O)(O)O)cc1)NC(=O)OCc1ccccc1` has a Ratio of 79.7. Molecule `CCCCCN(CCCCC)C(=O)[C@H](CSCc1ccccc1)NC(=O)[C@H](Cc1ccc(OP(=O)(O)O)cc1)NC(C)=O` has a Ratio of 155. Molecule `CCCCCN(CCCCC)C(=O)[C@H](CCC(=O)O)NC(=O)[C@H](Cc1ccc(OP(=O)(O)O)cc1)NC(=O)c1ccc(Cl)cc1` has a Ratio of 39. Work on `CCCCCN(CCCCC)C(=O)[C@H](CCC(=O)O)NC(=O)[C@H](Cc1ccc(OP(=O)(O)O)cc1)NC(=O)c1ccc(OC)cc1` yielded a Ratio of 7.2. Work on `CCCCCN(CCCCC)C(=O)[C@H](CCC(=O)O)NC(=O)[C@H](Cc1ccc(OP(=O)(O)O)cc1)NC(=O)Nc1ccc(OC)cc1` yielded a Ratio of 13.5. For `CCCCCN(CCCCC)C(=O)[C@H](CCC(=O)O)NC(=O)[C@H](Cc1ccc(OP(=O)(O)O)cc1)NC(=O)CCc1ccccc1`, the Ratio was 10.8. `CCCCCCN(CCCCCC)C(=O)[C@H](CCC(=O)O)NC(=O)[C@H](Cc1ccc(OP(=O)(O)O)cc1)NC(C)=O` gave a Ratio of 24. `CCCCCCCN(CCCCCCC)C(=O)[C@H](CCC(=O)O)NC(=O)[C@H](Cc1ccc(OP(=O)(O)O)cc1)NC(C)=O` gave a Ratio of 327. For `CCCCCN(CCCCC)C(=O)[C@H](CCC(=O)O)NC(=O)[C@H](Cc1ccc(OP(=O)(O)O)cc1)NC(=O)Nc1ccc([N+](=O)[O-])cc1`, the Ratio was 184. In the case of `CCCCCN(CCC(=O)O)C(=O)[C@H](CCC(=O)O)NC(=O)[C@H](Cc1ccc(OP(=O)(O)O)cc1)NC(C)=O`, the Ratio is reported as 48. In the case of `CCCCCN(CCCCC)C(=O)[C@H](CCC(=O)O)NC(=O)[C@H](Cc1ccc(OP(=O)(O)O)cc1)NC(=O)Nc1ccc(N)cc1`, the Ratio is reported as 26.9. `CC(=O)N[C@@H](Cc1ccc(OP(=O)(O)O)cc1)C(=O)N[C@@H](CCC(=O)O)C(=O)N(C)CCCCCCO` showed a Ratio of 6.4. Work on `CC(=O)N[C@@H](Cc1ccc(OP(=O)(O)O)cc1)C(=O)N[C@@H](CCC(=O)O)C(=O)N(C)CCCCCCCCO` yielded a Ratio of 2.2. `CCCCCN(CCCCC)C(=O)[C@H](CSC)NC(=O)[C@H](Cc1ccc(OP(=O)(O)O)cc1)NC(C)=O` gave a Ratio of 33.1. Molecule `CCCCCN(CCCCC)C(=O)[C@H](CCS(C)(=O)=O)NC(=O)[C@H](Cc1ccc(OP(=O)(O)O)cc1)NC(C)=O` has a Ratio of 75.3.
